Test results as given in patent publication US20260365647A1, “AKT1 MODULATORS” (Alterome Therapeutics, Inc., priority 2022, published 2026).

Biological target: T1, AKT1-E17K (Homo sapiens, UniProt P31749, E17K)
T1 construct: host or cells: HEK-293 (ATCC CRL-1573)
Experiment: NanoBRET Target Engagement (TE) Assay
Format: cell-based
Method in brief: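 Live cells transiently expressing NanoLuc-AKT1 E17K fusion, incubated 2 h with tracer and compound before substrate plus extracellular NanoLuc inhibitor were added. BRET read at 450/600 nm; EC50 from variable-slope sigmoidal fit of tracer displacement.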

T1 sequence (P31749 whole entry E17K): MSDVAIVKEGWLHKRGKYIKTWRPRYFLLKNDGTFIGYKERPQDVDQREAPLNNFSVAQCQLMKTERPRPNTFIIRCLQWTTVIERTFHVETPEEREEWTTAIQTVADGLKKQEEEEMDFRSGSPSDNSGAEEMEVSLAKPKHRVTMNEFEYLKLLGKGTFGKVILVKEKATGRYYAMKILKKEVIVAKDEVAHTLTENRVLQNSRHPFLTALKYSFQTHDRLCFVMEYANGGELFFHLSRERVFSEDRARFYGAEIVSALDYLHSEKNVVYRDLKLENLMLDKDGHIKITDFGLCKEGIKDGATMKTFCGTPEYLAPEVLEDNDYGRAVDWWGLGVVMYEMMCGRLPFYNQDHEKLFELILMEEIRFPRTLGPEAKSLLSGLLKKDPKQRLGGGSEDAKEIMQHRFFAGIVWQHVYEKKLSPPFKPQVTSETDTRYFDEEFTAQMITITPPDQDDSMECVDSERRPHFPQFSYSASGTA

| IC50 | SMILES |
| --- | --- |
| 60 to 600 nM | Nc1ncccc1-c1nc2cc(-c3ccccc3)cnc2n1-c1ccc(CN2CCN(c3ccc(C=O)c(O)c3)CC2)cc1 [Example 54, 4-(4-(4-(2-(2-Aminopyridin-3-yl)-6-phenyl-3H-imidazo[4,5-b]pyridin-3-yl)benzyl)piperazin-1-yl)-2-hydroxybenzaldehyde] |
| 60 to 600 nM | Nc1ncccc1-c1nc2ccc(-c3ccccc3)nc2n1-c1ccc(CN2CCC3(CCN(C(=O)c4ccc(O)c(C=O)c4)C3)C2)cc1 (stereo not drawn) [Example 80, 5-(7-(4-(2-(2-Aminopyridin-3-yl)-5-phenyl-3H-imidazo[4,5-b]pyridin-3-yl)benzyl)-2,7-diazaspiro[4.4]nonane-2-carbonyl)-2-hydroxybenzaldehyde] |
| 60 to 600 nM | Nc1ncccc1-c1nc2ccc(-c3ccccc3)nc2n1-c1ccc(CN2CC3CCC2CN3C(=O)c2ccc(C=O)c(O)c2)cc1 (stereo not drawn) [Example 125, 4-(5-(4-(2-(2-aminopyridin-3-yl)-5-phenyl-3H-imidazo[4,5-b]pyridin-3-yl)benzyl)-2,5-diazabicyclo[2.2.2]octane-2-carbonyl)-2-hydroxybenzaldehyde] |
| 15 to 60 nM | Nc1ncccc1-c1nc2ccc(-c3ccccc3)nc2n1-c1ccc(CN2CCC3(C2)CN(c2ccc(C=O)c(O)c2)C3)cc1 [Example 79, 4-(6-(4-(2-(2-Aminopyridin-3-yl)-5-phenyl-3H-imidazo[4,5-b]pyridin-3-yl)benzyl)-2,6-diazaspiro[3.4]octan-2-yl)-2-hydroxybenzaldehyde] |
| 60 to 600 nM | Nc1ncccc1-c1nc2ccc(-c3ccccc3)nc2n1-c1ccc(CN2CCC3(CCN(C(=O)c4ccc(C=O)c(O)c4)CC3)C2)cc1 [Example 90, 4-(2-(4-(2-(2-Aminopyridin-3-yl)-5-phenyl-3H-imidazo[4,5-b]pyridin-3-yl)benzyl)-2,8-diazaspiro[4.5]decane-8-carbonyl)-2-hydroxybenzaldehyde] |
| 60 to 600 nM | Nc1ncccc1-c1nc2ccc(-c3ccccc3)nc2n1-c1ccc(CN2CC3CCC2CN3c2ccc(C=O)c(O)c2)cc1 (stereo not drawn) [Example 127, 4-(5-(4-(2-(2-Aminopyridin-3-yl)-5-phenyl-3H-imidazo[4,5-b]pyridin-3-yl)benzyl)-2,5-diazabicyclo[2.2.2]octan-2-yl)-2-hydroxybenzaldehyde] |
| 15 to 60 nM | Nc1ncccc1-c1nc2ccc(-c3ccccc3)nc2n1-c1ccc(CN2CCCC(NC(=O)c3ccc(O)c(C=O)c3)CC2)cc1 (stereo not drawn) [Example 115, N-(1-(4-(2-(2-Aminopyridin-3-yl)-5-phenyl-3H-imidazo[4,5-b]pyridin-3-yl)benzyl)azepan-4-yl)-3-formyl-4-hydroxybenzamide] |
| 15 to 60 nM | Nc1ncccc1-c1nc2ccc(-c3ccccc3)nc2n1-c1ccc(CN2CCC3(CC2)CCN(C(=O)c2ccc(O)c(C=O)c2)C3)cc1 [Example 74, 5-(8-(4-(2-(2-aminopyridin-3-yl)-5-phenyl-3H-imidazo[4,5-b]pyridin-3-yl)benzyl)-2,8-diazaspiro[4.5]decane-2-carbonyl)-2-hydroxybenzaldehyde] |
| 60 to 600 nM | Nc1ncccc1-c1nc2ccc(-c3ccccc3)nc2n1-c1ccc(CN2CCC(Oc3cccc(O)c3C=O)CC2)cc1 [Example 128, 2-((1-(4-(2-(2-Aminopyridin-3-yl)-5-phenyl-3H-imidazo[4,5-b]pyridin-3-yl)benzyl)piperidin-4-yl)oxy)-6-hydroxybenzaldehyde] |
| 60 to 600 nM | Nc1ncccc1-c1nc2ccc(-c3ccc(F)cc3)nc2n1-c1ccc(CN2CCN(C(=O)c3ccc(C=O)c(O)c3)CC2)cc1 [Example 144, 4-(4-(4-(2-(2-Aminopyridin-3-yl)-5-(4-fluorophenyl)-3H-imidazo[4,5-b]pyridin-3-yl)benzyl)piperazine-1-carbonyl)-2-hydroxybenzaldehyde] |
| 60 to 600 nM | Nc1ncccc1-c1nc2ccc(-c3ccccc3)nc2n1-c1ccc(CN2CCN(c3cccc(C=O)c3O)CC2)cc1 [Example 23, 3-(4-(4-(2-(2-aminopyridin-3-yl)-5-phenyl-3H-imidazo[4,5-b]pyridin-3-yl)benzyl)piperazin-1-yl)-2-hydroxybenzaldehyde] |
| 15 to 60 nM | Nc1ncccc1-c1nc2ccc(-c3ccccc3)nc2n1-c1ccc(CN2CCC3(CC2)CC(NC(=O)c2ccc(O)c(C=O)c2)C3)cc1 [Example 68, N-(7-(4-(2-(2-Aminopyridin-3-yl)-5-phenyl-3H-imidazo[4,5-b]pyridin-3-yl)benzyl)-7-azaspiro[3.5]nonan-2-yl)-3-formyl-4-hydroxybenzamide] |
| 60 to 600 nM | Nc1ncccc1-c1nc2ccc(-c3ccccc3)nc2n1-c1ccc(CN2CC3(CC(NC(=O)c4ccc(C=O)c(O)c4)C3)C2)cc1 [Example 70, N-(2-(4-(2-(2-Aminopyridin-3-yl)-5-phenyl-3H-imidazo[4,5-b]pyridin-3-yl)benzyl)-2-azaspiro[3.3]heptan-6-yl)-4-formyl-3-hydroxybenzamide] |
| 60 to 600 nM | Nc1ncccc1-c1nc2ccc(-c3ccccc3)nc2n1-c1ccc(CN2C[C@@H]3C[C@H]2CN3C(=O)c2ccc(O)c(C=O)c2)cc1 [Example 121, 5-((1S,4S)-5-(4-(2-(2-Aminopyridin-3-yl)-5-phenyl-3H-imidazo[4,5-b]pyridin-3-yl)benzyl)-2,5-diazabicyclo[2.2.1]heptane-2-carbonyl)-2-hydroxybenzaldehyde] |
| 60 to 600 nM | Nc1ncccc1-c1nc2ccc(-c3ccccc3)nc2n1-c1ccc(CN2CCC3(CCN(c4ccc(C=O)c(O)c4)CC3)C2)cc1 [Example 85, 4-(2-(4-(2-(2-Aminopyridin-3-yl)-5-phenyl-3H-imidazo[4,5-b]pyridin-3-yl)benzyl)-2,8-diazaspiro[4.5]decan-8-yl)-2-hydroxybenzaldehyde] |
| 60 to 600 nM | Nc1ncccc1-c1nc2ccc(-c3ccccc3)nc2n1-c1ccc(CN2CCC(Nc3ccc(O)c(C=O)c3)CC2)cc1 [Example 48, 5-((1-(4-(2-(2-Aminopyridin-3-yl)-5-phenyl-3H-imidazo[4,5-b]pyridin-3-yl)benzyl)piperidin-4-yl)amino)-2-hydroxybenzaldehyde] |
| 60 to 600 nM | Nc1ncccc1-c1nc2ccc(-c3ccc(F)cc3)nc2n1-c1ccc(CN2CCN(C(=O)c3ccc(O)c(C=O)c3)CC2)cc1 [Example 143, 5-(4-(4-(2-(2-Aminopyridin-3-yl)-5-(4-fluorophenyl)-3H-imidazo[4,5-b]pyridin-3-yl)benzyl)piperazine-1-carbonyl)-2-hydroxybenzaldehyde] |
| 60 to 600 nM | Nc1ncccc1-c1nc2ccc(N3CCOCC3)nc2n1-c1ccc(CN2CCN(c3ccc(C=O)c(O)c3)CC2)cc1 [Example 31, 4-(4-(4-(2-(2-Aminopyridin-3-yl)-5-morpholino-3H-imidazo[4,5-b]pyridin-3-yl)benzyl)piperazin-1-yl)-2-hydroxybenzaldehyde] |
| 60 to 600 nM | Nc1ncccc1-c1nc2ccc(-c3ccccc3)nc2n1-c1ccc(CN2CCC3(CCN(C(=O)c4ccc(C=O)c(O)c4)C3)C2)cc1 (stereo not drawn) [Example 81, 4-(7-(4-(2-(2-Aminopyridin-3-yl)-5-phenyl-3H-imidazo[4,5-b]pyridin-3-yl)benzyl)-2,7-diazaspiro[4.4]nonane-2-carbonyl)-2-hydroxybenzaldehyde] |
| 60 to 600 nM | Nc1ncccc1-c1nc2ccc(-c3ccccc3)nc2n1-c1ccc(CN2CCC(Oc3ccc(O)c(C=O)c3)CC2)cc1 [Example 130, 5-((1-(4-(2-(2-Aminopyridin-3-yl)-5-phenyl-3H-imidazo[4,5-b]pyridin-3-yl)benzyl)piperidin-4-yl)oxy)-2-hydroxybenzaldehyde] |
| > 600 nM | Nc1ncccc1-c1nc2ccc(-c3ccccc3)nc2n1-c1ccc(COc2cccc(O)c2C=O)cc1 [Example 137, 2-((4-(2-(2-Aminopyridin-3-yl)-5-phenyl-3H-imidazo[4,5-b]pyridin-3-yl)benzyl)oxy)-6-hydroxybenzaldehyde] |
